Test results: PubChem BioAssay (NCI)
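48-hour exposure; five concentrations; linearly interpolated endpoints. TGI is the concentration that stops growth completely.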

Assays:
Assay in all cases: growth of human tumour cells (NCI), 48 h
SNB-19 CNS = system: SNB-19 CNS
CAKI-1 renal = system: CAKI-1 renal
SK-OV-3 ovarian = system: SK-OV-3 ovarian
EKVX NSCLC = system: EKVX NSCLC
RPMI-8226 leukemia = system: RPMI-8226 leukemia
HCT-116 colon = system: HCT-116 colon
MCF7 breast = system: MCF7 breast
M14 melanoma = system: M14 melanoma
OVCAR-8 ovarian = system: OVCAR-8 ovarian
MDA-MB-435 = system: MDA-MB-435
OVCAR-3 ovarian = system: OVCAR-3 ovarian
NCI-H460 lung = system: NCI-H460 lung
HCT-15 colon = system: HCT-15 colon
IGROV1 ovarian = system: IGROV1 ovarian

Measured: TGI

CCOC(=O)C(NC(C)=O)(Nc1ccc(F)cc1)C(F)(F)F (centres undefined)
> 100 µM: SNB-19 CNS | CAKI-1 renal | SK-OV-3 ovarian | EKVX NSCLC | RPMI-8226 leukemia | HCT-116 colon | MCF7 breast | M14 melanoma | OVCAR-8 ovarian | MDA-MB-435 | OVCAR-3 ovarian | NCI-H460 lung | HCT-15 colon | IGROV1 ovarian
